Literature values, collected in US20260216324A1, “QS-21 COMPOSITIONS AND PROCESSES FOR PRODUCING THE SAME AND USES THEREFOR” (priority 2022, published 2026).

Assays:
[1] = U.S. Pat. No. 5,583,112 (Example 11), isomers derived from bark
[2] = U.S. Pat. No. 5,583,112 (Example 11), isomers derived from bark; remark: listed apart in the source
[3] = prior art; saponins purified from Quillaja saponaria bark extract

| Compound | toxicity compared to standard 65:35 QS-21 [1] | adjuvanticity compared to standard 65:35 QS-21 [2] | adjuvant activity [3] |
| --- | --- | --- | --- |
| CC[C@H](C)[C@H](C[C@H](O)CC(=O)O[C@@H]1[C@H](O)[C@@H](O[C@@H]2O[C@@H](C)[C@H](O[C@@H]3OC[C@@H](O)[C@H](O[C@@H]4OC[C@@H](O)[C@H](O)[C@H]4O)[C@H]3O)[C@@H](O)[C@H]2O)[C@H](OC(=O)[C@]23CCC(C)(C)C[C@H]2C2=CC[C@@H]4[C@@]5(C)CC[C@H](O[C@@H]6O[C@H](C(=O)O)[C@@H](O)[C@H](O[C@@H]7OC[C@@H](O)[C@H](O)[C@H]7O)[C@H]6O[C@@H]6O[C@H](CO)[C@H](O)[C@H](O)[C@H]6O)[C@@](C)(C=O)[C@@H]5CC[C@@]4(C)[C@]2(C)C[C@H]3O)O[C@@H]1C)OC(=O)C[C@@H](O)C[C@H](O[C@@H]1O[C@@H](CO)[C@H](O)[C@H]1O)[C@@H](C)CC (single isomer, unassigned) [purified xylose isomer] | comparable in both adjuvanticity and toxicity to the standard 65:35 (apiose:xylose ratio) QS-21 | comparable in both adjuvanticity and toxicity to the standard 65:35 (apiose:xylose ratio) QS-21 |  |
| QS-17 |  |  | adjuvant active |
| QS-18 |  |  | adjuvant active |
| CC[C@H](C)[C@H](C[C@H](O)CC(=O)O[C@@H]1[C@H](O)[C@@H](O[C@@H]2O[C@@H](C)[C@H](O[C@@H]3OC[C@@H](O)[C@H](O[C@@H]4OC[C@](O)(CO)[C@H]4O)[C@H]3O)[C@@H](O)[C@H]2O)[C@H](OC(=O)[C@]23CCC(C)(C)C[C@H]2C2=CC[C@@H]4[C@@]5(C)CC[C@H](O[C@@H]6O[C@H](C(=O)O)[C@@H](O)[C@H](O[C@@H]7OC[C@@H](O)[C@H](O)[C@H]7O)[C@H]6O[C@@H]6O[C@H](CO)[C@H](O)[C@H](O)[C@H]6O)[C@@](C)(C=O)[C@@H]5CC[C@@]4(C)[C@]2(C)C[C@H]3O)O[C@@H]1C)OC(=O)C[C@@H](O)C[C@H](O[C@@H]1O[C@@H](CO)[C@H](O)[C@H]1O)[C@@H](C)CC (single isomer, unassigned) [purified apiose isomer] | comparable in both adjuvanticity and toxicity to the standard 65:35 (apiose:xylose ratio) QS-21 | comparable in both adjuvanticity and toxicity to the standard 65:35 (apiose:xylose ratio) QS-21 |  |
